Laboratory results as given in US5445941A, “Method for screening anti-osteoporosis agents” (Eli Lilly and Company, priority 1993, dated 1995).

Key:
[1] = animal models and humans; cited from earlier work
[2] = tested on: TGFβ-3 promoter; experiment: TGFβ-3 promoter transcription in RL59.2, HeLa and COS-1 cells; assay type: cell-based, human; details: RL59.2, HeLa and COS-1 (monkey kidney) cells
Experimental: Similar assays were performed in human endometrial cancer cells (RL59.2), human cervical cancer cells (HeLa) and monkey kidney cells (COS-1) (American Type Culture Collection, Rockville, Md.).

[3] = tested on: TGFβ-3 promoter; experiment: TGFβ-3 activation in MCF-7 cells (pTGFβ-301LUC, luciferase); assay type: cell-based, human; details: 24 h, 0 M 7.8
Experimental: Cultures of MCF-7 cells were transiently transfected with pTGFβ-301LUCas described in Example IV.
After 24 hours of treatment with the hormonal preparation (or the vehicle control), the cells were washed, harvested, lysed and assayed for LUC activity according to the method of Example VI.

[4] = tested on: TGFβ-2 promoter; experiment: CAT reporter expression, TGFβ-2 promoter (pTGF-1), MG63 cells cotransfected with pRSVER; details: TGFβ-2 promoter
Experimental: Co-transfection experiments were performed in MG63 (human osteosarcoma) cells, using the ProFection Mammalian Transfection System (Promega). […] The cells were then refed with fresh 3:1 media containing 10% csFBS. Compounds to be evaluated for their ability to modulate reporter gene expression were added at the appropriate times and assayed as described below.
Cultures of MG63 cells were transiently co-transfected with pRSVER plasmid and either phTG12, pTGF-1, or pB2-499 using the ProFection system (Promega). For each transfected cell culture, DNA-containing calcium phosphate precipitates were added dropwise to each culture dish and mixed thoroughly in the media. The pH of the media was carefully maintained between pH 7.2 and pH 7.4. Transfected cell cultures were then incubated overnight in a 5% CO2 atmosphere at 37° C. For all cultures, the precipitate was removed after overnight incubation by aspirating the media from the culture dishes, followed by rinsing each dish twice with D-PBS. For each cotransfected cell line, the buffer was replaced with 10 ml fresh medium containing 10% csFBS and one of the following compositions:
a. 10 μl ethanol (hormone vehicle)=control;
b. 10 μl 17β-estradiol (Sigma) ("estradiol") at a concentration of 10^-4 M in ethanol;
d. 10 μl Tamoxifen (Sigma) at a concentration of 10^-4 M in ethanol.
After 24 h incubation with these hormonal preparations (or the vehicle control), cells were washed twice with D-PBS. The cells were then scraped from the culture dishes using a rubber policeman and 1 ml of D-PBS. Cells were collected by centrifugation at 8,000 rpm for 2 minutes in a tabletop centrifuge (MicroMax Model, IEC, Newark, N.Y.). The supernatant was removed and the cell pellets were resuspended in 150 μL of a 0.25M Tris-HCl solution (pH 7.8). Cells were lysed by three cycles of freezing in a dry ice/ethanol bath and thawing in a water bath at 37° C. water bath (for 3 minutes each cycle). Lysed cell preparations were centrifuged at 15,000 rpm for 5 minutes at 4° C. to remove cell debris. Supernatants containing the soluble cell lysate were transferred to a new set of tubes for assaying chloramphenicol acetyltransferase (CAT) activity.
Before performing CAT assays on such cell lysates, the protein content of each lysate was first determined using a commercially-available assay (BioRad Laboratories, Richmond, Calif.). […]

## C[C@]12CC[C@@H]3c4ccc(O)cc4CC[C@H]3[C@@H]1CC[C@@H]2O [estradiol, 17β-estradiol]
[1]
  serum lipid lowering effect (in words): serum lipid lowering effect
[2]
  transcription initiated by the TGFβ-3 promoter (in words): induced
[3]; 10^-5 M
  Luciferase activity: 122 thousands of units
[3]; 10^-6 M
  Luciferase activity: 101.3 thousands of units
[3]; 10^-7 M
  Luciferase activity: 107.3 thousands of units
[3]; 10^-8 M
  Luciferase activity: 9.1 thousands of units
[3]; 10^-9 M
  Luciferase activity: 19.2 thousands of units
[4]; 10 μl of 10^-4 M in 10 ml medium, 24 h, control 0.8
  Act. (relative CAT activity): 1.29
[4]; comparison with control, 1440 min, 0.1 µM
  Fold Ind.: 1.6 fold
